What was measured:
TNFα = test: IRAK4 Monocyte TNFα Cell Based Assay (LPS-stimulated, TR-FRET TNFα detection); parameters: species or system human; settings: Homo sapiens, Monocyte, human monocytes, LPS-stimulated; Table 2 second part (compounds 33-343); read-out: EC50 MONO TNF HTRF
Procedure: IRAK4 Monocyte TNFα Cell Based Assay Procedure:
The cell suspension was then plated at a density of 5,000 cells/well onto black 384 well Greiner clear bottom plates. Plates were pre-spotted with test compounds and serially diluted in DMSO where 40 nL/well were delivered using the Echo 550 acoustic liquid dispenser (Labcyte®) for a final DMSO concentration of 0.1%. Plated cells were treated with compound for 1 hour at 37° C. Cells were then stimulated with 50 pg/ml of LPS (Sigma) excluding outside columns of plate used for unstimulated cell control wells. Cells were incubated for an additional 4 hours at 37° C. Cells were then spun out of the media and 5 μl of sample were taken and analyzed for total TNFα content using the TR-FRET Human TNFα detection system (CisBio). This system utilizes two labeled antibodies (cryptate and XL665) that bind to two different epitopes of the TNFα molecule and produce FRET signal proportional to the concentration of TNFα in the sample. Detection antibodies are mixed 50:50 and 5 μL were dispensed into each well. Plates were covered with clear seals and incubated at room temp overnight. […] Percent of control was calculated as follows: % Control=100×(RatioSample−Ratio0% Stimulation)/(Ratio100% Stimulation−Ratio0% Stimulation) where unstimulated cells (0% stimulation) were the negative control and stimulated cells (100% stimulation) were used as the positive control.

IRAK4 enzyme = molecular target: T1, IRAK4 enzyme (Homo sapiens, UniProt Q9NWZ3); test: IRAK4 Biochemical Assay (TR-FRET, STK1 KinEASE); settings: 500 μM ATP, Table 2 second part (compounds 33-343), read-out: IC50 IRAK4-HTBS
T1 construct: purchased Carna Biosciences, Chuo-ku, Kobe, Japan
T1 sequence (Q9NWZ3 1-460): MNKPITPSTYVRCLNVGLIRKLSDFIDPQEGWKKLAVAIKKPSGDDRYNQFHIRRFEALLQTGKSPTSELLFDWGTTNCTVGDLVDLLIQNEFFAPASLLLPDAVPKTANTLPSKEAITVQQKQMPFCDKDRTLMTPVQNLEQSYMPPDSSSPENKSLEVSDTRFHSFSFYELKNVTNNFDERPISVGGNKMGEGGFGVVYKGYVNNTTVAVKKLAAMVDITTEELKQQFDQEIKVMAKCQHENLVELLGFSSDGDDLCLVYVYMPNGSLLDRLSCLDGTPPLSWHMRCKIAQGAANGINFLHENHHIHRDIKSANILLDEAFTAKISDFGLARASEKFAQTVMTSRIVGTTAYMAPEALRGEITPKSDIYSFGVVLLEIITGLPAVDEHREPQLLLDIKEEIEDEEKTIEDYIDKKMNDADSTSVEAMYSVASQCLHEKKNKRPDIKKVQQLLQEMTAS
Procedure: IRAK4 enzyme (Carna Biosciences, Chuo-ku, Kobe, Japan) activity was measured by detecting phosphorylated peptide substrate formation using an antibody against the phosphorylated peptide substrate. This is a time-resolved fluorescence resonance energy transfer (TR-FRET) immunoassay, based on the STK1 KinEASE Assay (Cisbio, Bedford, Massachusetts). The assay was designed as a simple two-step, endpoint assay (a 5 μl enzyme reaction followed by 5 μl stop and detect Solution) performed in ProxiPlate-384 Plus plates (Perkin Elmer, Waltham, Massachusetts). […] Compounds diluted in DMSO were spotted into 384 well plates using a Labcyte® Echo 550 Liquid Handling System prior to addition of IRAK4 enzyme and peptide substrate. Reaction solutions were delivered using a Multi-Flo (Bio-Tek Instruments). The enzyme and peptide solution was incubated with compound for 15 minutes at room temp before the reaction was initiated by the addition of ATP. The standard 5 μl reaction mixture contained 500 μM ATP, 2 μM peptide (STK1 Peptide), 0.75 nM of IRAK4 in reaction buffer (50 mM HEPES, pH 7.0, 0.02% NaN3, 0.01% BSA, 0.1 mM Orthovanadate, 5 mM MgCl2, 0.025% NP-40, 1 mM DTT). After 120 min of incubation at room temperature, 5 μl of Stop and Detect Solution (1:100 Cryptate labeled anti-phosphorylated peptide antibody solution and 125 nM Tracer in a 50 mM HEPES pH 7.0 detection buffer containing sufficient EDTA) was added. The plate was then further incubated for 60 minutes at room temperature and read on Envision 2103 Multilabeled reader (PerkinElmer) with excitation/emission/FRET emission at 340 nm/615 nm/665 nm, respectively. Fluorescence intensities at 615 nm and 665 nm emission wavelengths were expressed as a ratio (665 nm/615 nm).

Row | EC50 (TNFα) [nM] | IC50 (IRAK4 enzyme) [nM] | SMILES
1 | 69.9 | 3.81 | CC(C)Nc1cc(-c2ccc3cc(C#N)cnn23)ncc1-c1nnc(N2CCS(=N)(=O)CC2)s1 [Compound 262, 7-(5-(5-(1-imino-1-oxido-116-thiomorpholino)-1,3,4-thiadiazol-2-yl)-4-(isopropylamino)pyridin-2-yl)pyrrolo[1,2-b]pyridazine-3-carbonitrile]
2 | 14.1 | 0.61 | CC(=O)N[C@H]1CC[C@H](c2nnc(-c3cnc(-c4ccc5cc(C#N)cnn45)cc3NC3(C)CCOCC3)s2)CC1 [Compound 268, N-((1r,4r)-4-(5-(6-(3-cyanopyrrolo[1,2-b]pyridazin-7-yl)-4-((4-methyltetrahydro-2H-pyran-4-yl)amino)pyridin-3-yl)-1,3,4-thiadiazol-2-yl)cyclohexyl)acetamide]
3 | 4.1 | 1.1 | CC(=O)N[C@@H]1[C@@H]2CC[C@H]1CN(c1nnc(-c3cnc(-c4ccc5cc(C#N)cnn45)cc3NC3(C)CCOCC3)s1)C2 [Compound 272, N-((1R,5S,8s)-3-(5-(6-(3-cyanopyrrolo[1,2-b]pyridazin-7-yl)-4-((4-methyltetrahydro-2H-pyran-4-yl)amino)pyridin-3-yl)-1,3,4-thiadiazol-2-yl)-3-azabicyclo[3.2.1]octan-8-yl)acetamide]
4 | 7.8 | 0.89 | CC(C)Nc1cc(-c2ccc3cc(C#N)cnn23)ncc1-c1nnc(N2C3CC2CN(C(=O)CN=S(C)(C)=O)C3)s1 [Compound 276, 7-(5-(5-(3-(2-((dimethyl(oxo)-16-sulfanylidene)amino)acetyl)-3,6-diazabicyclo[3.1.1]heptan-6-yl)-1,3,4-thiadiazol-2-yl)-4-(isopropylamino)pyridin-2-yl)pyrrolo[1,2-b]pyridazinc-3-carbonitrile]
5 | ≥ 10000 | 0.07 | CC(=O)N[C@H]1C[C@H](c2nnc(-c3cnc(-c4ccc5cc(C#N)cnn45)cc3NC(C)C)s2)C1 [Compound 278, N-((1r,3r)-3-(5-(6-(3-cyanopyrrolo[1,2-b]pyridazin-7-yl)-4-(isopropylamino)pyridin-3-yl)-1,3,4-thiadiazol-2-yl)cyclobutyl)acetamide]
6 | 15.9 | 0.4 | CC(=O)N[C@H]1C[C@@H](c2nnc(-c3cnc(-c4ccc5cc(C#N)cnn45)cc3NC(C)C)s2)C1 [Compound 279, N-((1s,3s)-3-(5-(6-(3-cyanopyrrolo[1,2-b]pyridazin-7-yl)-4-(isopropylamino)pyridin-3-yl)-1,3,4-thiadiazol-2-yl)cyclobutyl)acetamide]
7 | 21.4 | 0.24 | CC(=O)NC[C@H]1C[C@@H](c2nnc(-c3cnc(-c4ccc5cc(C#N)cnn45)cc3NC(C)C)s2)C1 [Compound 289, N-(((1s,3s)-3-(5-(6-(3-cyanopyrrolo[1,2-b]pyridazin-7-yl)-4-(isopropylamino)pyridin-3-yl)-1,3,4-thiadiazol-2-yl)cyclobutyl)methyl)acetamide]
8 | 16.2 | 0.33 | CC(=O)NC[C@H]1C[C@H](c2nnc(-c3cnc(-c4ccc5cc(C#N)cnn45)cc3NC(C)C)s2)C1 [Compound 290, N-(((1r,3r)-3-(5-(6-(3-cyanopyrrolo[1,2-b]pyridazin-7-yl)-4-(isopropylamino)pyridin-3-yl)-1,3,4-thiadiazol-2-yl)cyclobutyl)methyl)acetamide]
9 | 6.7 | 0.2 | CNc1cc(-c2ccc3cc(C#N)cnn23)ncc1-c1nnc(N2C[C@H]3CC[C@@H](C2)[C@@H]3NC(C)=O)s1 [Compound 292, N-((1R,5S,8s)-3-(5-(6-(3-cyanopyrrolo[1,2-b]pyridazin-7-yl)-4-(methylamino)pyridin-3-yl)-1,3,4-thiadiazol-2-yl)-3-azabicyclo[3.2.1]octan-8-yl)acetamide]
10 | 5.3 | 0.98 | CC(=O)N(C)[C@@H]1[C@@H]2CC[C@H]1CN(c1nnc(-c3cnc(-c4ccc5cc(C#N)cnn45)cc3NC(C)C)s1)C2 [Compound 300, N-((1R,5S,8s)-3-(5-(6-(3-cyanopyrrolo[1,2-b]pyridazin-7-yl)-4-(isopropylamino)pyridin-3-yl)-1,3,4-thiadiazol-2-yl)-3-azabicyclo[3.2.1]octan-8-yl)-N-methylacetamide]

Source: patent publication US12060351B2, “Thiadiazole IRAK4 inhibitors” (Gilead Sciences, Inc., priority 2018, dated 2024)
